Experiments:
Type in all cases: cell-based
human TLR7 = target: T1, human TLR7 (Homo sapiens, UniProt Q9NYK1); test: TLR7 inhibition reporter assay (HEK-Blue cells, SEAP reporter, gardiquimod stimulation); details: HEK-Blue cells overexpressing human TLR7, SEAP reporter, gardiquimod 7.5 μM
T1 construct: host or cells: HEK-Blue cells (HEK293-derived reporter line)
T1 sequence (Q9NYK1 27-1049): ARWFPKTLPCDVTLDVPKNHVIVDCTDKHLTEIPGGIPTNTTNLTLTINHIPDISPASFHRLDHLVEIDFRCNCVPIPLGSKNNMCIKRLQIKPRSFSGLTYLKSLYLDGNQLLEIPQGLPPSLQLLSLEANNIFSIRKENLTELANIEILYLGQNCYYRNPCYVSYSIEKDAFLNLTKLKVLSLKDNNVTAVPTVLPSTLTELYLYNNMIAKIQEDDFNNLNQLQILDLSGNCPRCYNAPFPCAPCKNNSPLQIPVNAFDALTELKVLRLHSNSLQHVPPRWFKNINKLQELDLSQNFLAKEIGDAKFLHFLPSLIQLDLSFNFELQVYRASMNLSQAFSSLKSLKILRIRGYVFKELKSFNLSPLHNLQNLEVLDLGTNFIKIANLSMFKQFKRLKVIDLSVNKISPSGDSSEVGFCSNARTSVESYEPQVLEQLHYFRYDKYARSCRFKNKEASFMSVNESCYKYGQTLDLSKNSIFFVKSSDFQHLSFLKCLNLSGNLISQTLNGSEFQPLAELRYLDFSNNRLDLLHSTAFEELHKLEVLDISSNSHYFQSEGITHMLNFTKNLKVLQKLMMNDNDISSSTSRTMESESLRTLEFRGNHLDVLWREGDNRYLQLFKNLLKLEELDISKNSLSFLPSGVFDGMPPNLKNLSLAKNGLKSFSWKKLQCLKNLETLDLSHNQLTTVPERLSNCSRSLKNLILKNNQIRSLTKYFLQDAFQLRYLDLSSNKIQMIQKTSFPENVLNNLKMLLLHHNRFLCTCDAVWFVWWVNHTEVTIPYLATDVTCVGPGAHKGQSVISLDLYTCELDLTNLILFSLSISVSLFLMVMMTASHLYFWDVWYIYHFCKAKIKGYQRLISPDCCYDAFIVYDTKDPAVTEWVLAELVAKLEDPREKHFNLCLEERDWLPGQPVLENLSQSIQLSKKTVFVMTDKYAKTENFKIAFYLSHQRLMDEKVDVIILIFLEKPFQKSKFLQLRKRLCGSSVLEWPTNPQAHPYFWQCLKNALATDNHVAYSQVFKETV
In short: (§1)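 Read-out is SEAP activity in HEK-Blue detection medium after 22 h at 37 °C, converted to percent inhibition against agonist-plus-DMSO and reference-inhibitor controls. Cells saw compound (0.05 nM–50 μM, 30 min, room temperature) before gardiquimod 7.5 μM, R848 15.9 μM or ODN2006 5 nM for TLR7, TLR8 and TLR9, respectively.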

human TLR8 = target: T2, human TLR8 (Homo sapiens, UniProt Q9NR97); test: TLR8 inhibition reporter assay (HEK-Blue cells, SEAP reporter, R848 stimulation); details: HEK-Blue cells overexpressing human TLR8, SEAP reporter, R848 15.9 μM
T2 construct: host or cells: HEK-Blue cells (HEK293-derived reporter line)
T2 sequence (Q9NR97 27-1041): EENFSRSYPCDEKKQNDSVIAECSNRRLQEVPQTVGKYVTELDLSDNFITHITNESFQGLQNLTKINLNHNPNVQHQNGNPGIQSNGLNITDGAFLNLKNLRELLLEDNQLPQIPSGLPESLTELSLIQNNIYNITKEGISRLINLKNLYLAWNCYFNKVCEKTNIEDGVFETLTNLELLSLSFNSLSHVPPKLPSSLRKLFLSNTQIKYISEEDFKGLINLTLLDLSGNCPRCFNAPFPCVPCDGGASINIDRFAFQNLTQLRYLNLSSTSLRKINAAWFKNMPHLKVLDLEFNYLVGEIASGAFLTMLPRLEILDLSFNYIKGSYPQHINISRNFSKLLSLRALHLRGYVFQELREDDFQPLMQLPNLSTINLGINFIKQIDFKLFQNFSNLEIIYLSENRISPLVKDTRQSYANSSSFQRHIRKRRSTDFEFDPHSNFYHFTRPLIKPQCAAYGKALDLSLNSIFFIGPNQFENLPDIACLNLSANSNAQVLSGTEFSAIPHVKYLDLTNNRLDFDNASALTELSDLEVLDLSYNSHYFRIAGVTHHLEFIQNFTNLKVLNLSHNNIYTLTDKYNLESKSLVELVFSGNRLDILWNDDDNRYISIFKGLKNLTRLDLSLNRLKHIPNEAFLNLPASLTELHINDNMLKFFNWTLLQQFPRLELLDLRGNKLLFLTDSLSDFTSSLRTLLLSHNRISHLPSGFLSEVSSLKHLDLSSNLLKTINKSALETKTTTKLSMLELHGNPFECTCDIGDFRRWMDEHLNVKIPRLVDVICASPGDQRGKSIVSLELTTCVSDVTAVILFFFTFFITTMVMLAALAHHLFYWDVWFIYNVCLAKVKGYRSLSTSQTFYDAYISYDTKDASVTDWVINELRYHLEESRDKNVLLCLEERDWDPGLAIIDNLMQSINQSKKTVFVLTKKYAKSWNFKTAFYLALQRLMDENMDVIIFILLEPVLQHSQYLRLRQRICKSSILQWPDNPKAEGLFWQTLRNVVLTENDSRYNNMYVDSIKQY
In short: as §1

human TLR9 = target: T3, human TLR9 (Homo sapiens, UniProt Q9NR96); test: TLR9 inhibition reporter assay (HEK-Blue cells, SEAP reporter, ODN2006 stimulation); details: HEK-Blue cells overexpressing human TLR9, SEAP reporter, ODN2006 5 nM
T3 construct: host or cells: HEK-Blue cells (HEK293-derived reporter line)
T3 sequence (Q9NR96 26-1032): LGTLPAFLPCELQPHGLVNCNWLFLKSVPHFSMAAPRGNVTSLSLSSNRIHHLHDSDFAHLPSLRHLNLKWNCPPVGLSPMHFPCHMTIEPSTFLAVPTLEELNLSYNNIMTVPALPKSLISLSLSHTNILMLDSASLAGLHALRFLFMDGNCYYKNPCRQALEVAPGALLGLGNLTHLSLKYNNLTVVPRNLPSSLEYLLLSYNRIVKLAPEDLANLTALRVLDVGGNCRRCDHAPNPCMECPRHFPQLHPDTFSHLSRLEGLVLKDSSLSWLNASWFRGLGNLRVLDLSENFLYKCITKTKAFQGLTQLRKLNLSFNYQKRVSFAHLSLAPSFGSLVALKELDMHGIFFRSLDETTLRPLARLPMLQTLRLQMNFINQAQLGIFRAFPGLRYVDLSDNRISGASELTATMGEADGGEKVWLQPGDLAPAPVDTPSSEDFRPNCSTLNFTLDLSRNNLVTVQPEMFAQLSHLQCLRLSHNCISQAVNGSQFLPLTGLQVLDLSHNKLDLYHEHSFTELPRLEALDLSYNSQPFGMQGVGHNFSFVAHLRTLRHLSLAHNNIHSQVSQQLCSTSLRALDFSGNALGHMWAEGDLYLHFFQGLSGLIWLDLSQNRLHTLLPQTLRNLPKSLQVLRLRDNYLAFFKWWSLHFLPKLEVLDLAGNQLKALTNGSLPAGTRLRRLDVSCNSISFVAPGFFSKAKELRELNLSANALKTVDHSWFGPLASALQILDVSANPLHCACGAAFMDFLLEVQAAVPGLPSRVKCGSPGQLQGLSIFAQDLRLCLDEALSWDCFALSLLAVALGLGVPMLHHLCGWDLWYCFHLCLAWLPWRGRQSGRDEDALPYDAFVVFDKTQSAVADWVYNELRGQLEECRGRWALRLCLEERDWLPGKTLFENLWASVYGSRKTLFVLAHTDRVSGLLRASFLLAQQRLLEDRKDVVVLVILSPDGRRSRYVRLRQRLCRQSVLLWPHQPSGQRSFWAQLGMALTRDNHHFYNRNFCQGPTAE
In short: as §1

Row | IC50 (human TLR7) [nM] | IC50 (human TLR8) [nM] | IC50 (human TLR9) [nM] | Structure (SMILES)
1 | 100 to 1000 | 100 to 1000 | 1000 to 50000 | Cc1cc(-c2[nH]c3ccc(C4CCNCC4)cc3c2C(C)C)cn2cc(C(=O)NCC(C)(C)O)nc12 [Example 270, N-(2-hydroxy-2-methylpropyl)-6-(3-isopropyl-5-(piperidin-4-yl)-1H-indol-2-yl)-8-methylimidazo[1,2-a]pyridine-2-carboxamide]
2 | < 100 | 100 to 1000 | > 50000 | Cc1cc(-c2[nH]c3ccc(C4CCN(C(=O)CN5CCC(F)(F)CC5)CC4)cc3c2C(C)C)cn2nnnc12 [Example 482, 2-(4,4-difluoropiperidin-1-yl)-1-(4-(3-isopropyl-2-(8-methyltetrazolo[1,5-a]pyridin-6-yl)-1H-indol-5-yl)piperidin-1-yl)ethan-1-one]
3 | 100 to 1000 | < 100 | 1000 to 50000 | CC(C)c1c(-c2ccnc3cccnc23)[nH]c2ccc(C3CCNCC3)cc12 [Example 22, 4-(3-isopropyl-5-(piperidin-4-yl)-1H-indol-2-yl)-1,5-naphthyridine]
4 | < 100 | 100 to 1000 | 1000 to 50000 | CC(C)c1c(-c2ccn3cnnc3c2)[nH]c2ccc(C3CCN(C4COC4)CC3)cc12 [Example 736, 7-(3-isopropyl-5-(1-(oxetan-3-yl)piperidin-4-yl)-1H-indol-2-yl)-[1,2,4]triazolo[4,3-a]pyridine]
5 | 1000 to 50000 | 1000 to 50000 | > 50000 | CCc1c(-c2cccc3[nH]ncc23)[nH]c2ccc(C3CCN(CC(=O)NC)CC3)cc12 [Example 388, 2-(4-(3-ethyl-2-(1H-indazol-4-yl)-1H-indol-5-yl)piperidin-1-yl)-N-methylacetamide]
6 | 1000 to 50000 | > 3130 | 1000 to 50000 | CC(C)c1c(-c2cnc3ccnn3c2)[nH]c2ccc(C3CCN(C(=O)[C@@H]4NCC[C@H]4O)CC3)cc12 [Example 513, ((2R,3R)-3-hydroxypyrrolidin-2-yl)(4-(3-isopropyl-2-(pyrazolo[1,5-a]pyrimidin-6-yl)-1H-indol-5-yl)piperidin-1-yl)methanone]
7 | < 100 | 100 to 1000 | 100 to 1000 | CNCC(=O)N1CCC(c2ccc3[nH]c(-c4cn5ccnc5c(C)c4C)c(C(C)C)c3c2)CC1 [Example 548, 1-(4-(2-(7,8-dimethylimidazo[1,2-a]pyridin-6-yl)-3-isopropyl-1H-indol-5-yl)piperidin-1-yl)-2-(methylamino)ethan-1-one]
8 | < 100 | < 100 | 1000 to 50000 | Cc1cc(-c2[nH]c3ccc(C4CCN(C(=O)CN(C)C)CC4)cc3c2C(C)C)cc2nccnc12 [Example 518, 2-(dimethylamino)-1-(4-(3-isopropyl-2-(8-methylquinoxalin-6-yl)-1H-indol-5-yl)piperidin-1-yl)ethan-1-one]
9 | < 100 | < 100 | 100 to 1000 | CNCC(=O)N1CCC(c2ccc3[nH]c(-c4cc(C)n5cncc5c4)c(C(C)C)c3c2)CC1 [Example 530, 1-(4-(3-isopropyl-2-(5-methylimidazo[1,5-a]pyridin-7-yl)-1H-indol-5-yl)piperidin-1-yl)-2-(methylamino)ethan-1-one]
10 | < 100 | < 100 | 1000 to 50000 | Cc1cc(-c2[nH]c3ccc(C4CCN(CC(C)(C)O)CC4)cc3c2C(C)C)cc2cccnc12 [Example 771, 1-(4-(3-isopropyl-2-(8-methylquinolin-6-yl)-1H-indol-5-yl)piperidin-1-yl)-2-methylpropan-2-ol]
11 | 1000 to 50000 | 1000 to 50000 | 100 to 1000 | CCc1c(-c2ccnc3[nH]ccc23)[nH]c2cc(C)c(C3CCN(C4CCN(C(C)C)CC4)CC3)cc12 [Example 840, 4-(3-ethyl-5-(1′-isopropyl-[1,4′-bipiperidin]-4-yl)-6-methyl-1H-indol-2-yl)-1H-pyrrolo[2,3-b]pyridine]
12 | < 100 | < 100 | 1000 to 50000 | CC(C)c1c(-c2cn(C)c3c(=O)n(C)ccc23)[nH]c2ccc(C3CCN(CC(=O)N(C)C)CC3)cc12 [Example 297, 2-(4-(2-(1,6-dimethyl-7-oxo-6,7-dihydro-1H-pyrrolo[2,3-c]pyridin-3-yl)-3-isopropyl-1H-indol-5-yl)piperidin-1-yl)-N,N-dimethylacetamide]
13 | < 100 | < 100 | 100 to 1000 | CC(C)c1c(-c2ccnc3[nH]ncc23)[nH]c2ccc(C3CCN(Cc4c[nH]cn4)CC3)cc12 [Example 870, 4-(5-(1-((1H-imidazol-4-yl)methyl)piperidin-4-yl)-3-isopropyl-1H-indol-2-yl)-1H-pyrazolo[3,4-b]pyridine]
14 | < 100 | < 100 | 100 to 1000 | Cc1cc2[nH]c(-c3ccnc4[nH]ncc34)c(C(C)C)c2cc1C1CCNCC1 [Example 250, 4-(3-isopropyl-6-methyl-5-(piperidin-4-yl)-1H-indol-2-yl)-1H-pyrazolo[3,4-b]pyridine]

— patent publication US11739098B2 (BRISTOL-MYERS SQUIBB COMPANY, priority 2017, dated 2023)
